Reference: patent publication US20020019527A1 (priority 2000, published 2002)
Structures can show the parent of a compound that is named as a salt.

Target: T1, Farnesyltransferase (FTase) (Bos taurus, UniProt P29702+P49355)
T1 construct: precipitation from a beef brain homogenate; from tissue; host or cells: bovine brain
Test: Farnesyltransferase inhibition (scintillation proximity assay, [3H]-FPP / biotin-K-ras peptide)
Format: biochemical, bovine
Conditions: compound at 10^−6 M; bovine FTase, 37° C., 30 minutes
Method in brief: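 Bovine brain FTase, partially purified by 30–50% saturated ammonium sulfate precipitation and DEAE Sepharose chromatography, separated from GGTase I/II. Scintillation proximity read-out of [3H]-FPP transfer to biotin-K-ras peptide, counted 1 h after quench. Compounds added from ethanol with 10-fold dilution into assay.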

T1 sequence (P49355 whole entry, one chain of several): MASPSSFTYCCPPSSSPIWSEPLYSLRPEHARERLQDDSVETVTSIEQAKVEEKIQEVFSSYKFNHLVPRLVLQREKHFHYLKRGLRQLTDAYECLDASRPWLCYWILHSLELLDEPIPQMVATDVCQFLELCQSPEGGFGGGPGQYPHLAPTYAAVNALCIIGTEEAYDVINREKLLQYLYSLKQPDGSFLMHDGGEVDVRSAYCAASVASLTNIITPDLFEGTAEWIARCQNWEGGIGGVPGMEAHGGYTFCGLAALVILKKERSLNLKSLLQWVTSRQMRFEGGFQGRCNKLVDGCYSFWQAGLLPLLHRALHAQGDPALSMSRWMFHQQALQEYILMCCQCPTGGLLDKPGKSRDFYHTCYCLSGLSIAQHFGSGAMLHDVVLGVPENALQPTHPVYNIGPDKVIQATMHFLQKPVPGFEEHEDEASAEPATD

| inhibition at 1 µM [%] | SMILES | % Inhibition at 10^−6M [%] |
| --- | --- | --- |
| 90 | Cn1cncc1C(OCc1ccc(C#N)cc1)c1ccc(C#N)c(-c2ccccc2C(=O)O)c1 (stereo not drawn) [Example 205, 2′-cyano-5′-(((4-cyanobenzyl)oxy)(1-methyl-1H-imidazol-5-yl)methyl)(1,1′-biphenyl)-2-carboxylic acid] | – |
| 88 | Cn1cncc1CN(Cc1ccc(C#N)cc1)C(=O)c1ccc(C#N)c(-c2cccc3cccnc23)c1 [Example 206, 4-cyano-N-(4-cyanobenzyl)-N-((1-methyl-1H-imidazol-5-yl)methyl)-3-(8-quinolinyl)benzamide] | – |
| 91 | Cn1cncc1CN(Cc1ccc(C#N)c(-c2cccc3ccccc23)c1)Cc1cc(OC(F)(F)F)ccc1O [Example 207, 4-(((2-hydroxy-5-(trifluoromethoxy)benzyl)((1-methyl-1H-imidazol-5-yl)methyl)-amino)methyl)-2-(1-naphthyl)benzonitrile] | – |
| 95 | COC(=O)c1ccc(CN(Cc2ccc(C#N)c(-c3cccc4ccccc34)c2)Cc2cncn2C)nc1 [Example 208, methyl 6-(((4-cyano-3-(1-naphthyl)benzyl)((1-methyl-1H-imidazol-5-yl)methyl)-amino)-methyl)nicotinate] | – |
| 93 | CCOC(=O)N1CCC(N(Cc2ccc(C#N)c(-c3cccc4ccccc34)c2)Cc2cncn2C)CC1 [Example 209, ethyl 4-((4-cyano-3-(1-naphthyl)benzyl)((1-methyl-1H-imidazol-5-yl)methyl)-amino)-1-piperidinecarboxylate] | – |
| 48 | Cc1ccccc1-c1cc(C(Cn2ccnc2)OCc2ccccc2)ccc1C#N (stereo not drawn) [Example 210, 5-(1-(benzyloxy)-2-(1H-imidazol-1-yl)ethyl)-2′-methyl(1,1′-biphenyl)-2-carbonitrile hydrochloride] | – |
| 30 | Cc1ccccc1-c1cc(C(O)c2cccnc2)ccc1C#N (stereo not drawn) [Example 211, 5-(hydroxy(3-pyridinyl)methyl)-2′-methyl(1,1′-biphenyl)-2-carbonitrile] | – |
| 10 | Cc1ccccc1-c1cc(CNc2cccnc2)ccc1C#N [Example 212, 2′-methyl-5-((3-pyridinylamino)methyl)(1,1′-biphenyl)-2-carbonitrile] | – |
| 41 | Cc1ccccc1-c1cc(C(OCc2ccccc2)c2cncs2)ccc1C#N (stereo not drawn) [Example 213, 5-((benzyloxy)(1,3-thiazol-5-yl)methyl)-2′-methyl(1,1′-biphenyl)-2-carbonitrile hydrochloride] | – |
| 20 | Cc1ccccc1-c1cc(C(O)c2cncs2)ccc1C#N (stereo not drawn) [Example 214, 5-(hydroxy(1,3-thiazol-5-yl)methyl)-2′-methyl(1,1′-biphenyl)-2-carbonitrile] | – |
| 29 | Cc1ccccc1-c1cc(CN(Cc2ccccc2)Cc2cccnc2)ccc1C#N [Example 215, 5-((benzyl(3-pyridinylmethyl)amino)methyl)-2′-methyl(1,1′-biphenyl)-2-carbonitrile hydrochloride] | – |
| 27 | Cc1ccccc1-c1cc(NCc2cccnc2)ccc1C#N [Example 216, 2′-methyl-5-((3-pyridinylmethyl)amino)(1,1′-biphenyl)-2-carbonitrile] | – |
| 71 | Cc1ccccc1-c1cc(N(Cc2ccccc2)Cc2cccnc2)ccc1C#N [Example 217, 5-(benzyl(3-pyridinylmethyl)amino)-2′-methyl(1,1′-biphenyl)-2-carbonitrile] | – |
| 50 | Cc1ccccc1-c1cc(NCc2cncn2C)ccc1C#N [Example 225, 2′-methyl-5-(((1-methyl-1H-imidazol-5-yl)methyl)amino)(1,1′-biphenyl)-2-carbonitrile] | – |
| 100 | Cc1ccccc1-c1cc(N(Cc2ccccc2)Cc2cncn2C)ccc1C#N [Example 226, 5-(benzyl((1-methyl-1H-imidazol-5-yl)methyl)amino)-2′-methyl(1,1-biphenyl)-2-carbonitrile] | – |
| 100 | CN(Cc1cncn1C)c1ccc(C#N)c(-c2cccc3ccccc23)c1 [Example 227, 4-(methyl((1-methyl-1H-imidazol-5-yl)methyl)amino)-2-(1-naphthyl)benzonitrile] | – |
| 100 | C=CCN(Cc1cncn1C)c1ccc(C#N)c(-c2cccc3ccccc23)c1 [Example 228, 4-(allyl( (1-methyl-1H-imidazol-5-yl)methyl)amino)-2-(1-naphthyl)benzonitrile] | – |
| 100 | Cc1ccccc1-c1cc(N(Cc2ccc(C#N)cc2)Cc2cncn2C)ccc1C#N [Example 229, 5-((4-cyanobenzyl)((1-methyl-1H-imidazol-5-yl)methyl)amino)-2′-methyl(1,1′-biphenyl)-2-carbonitrile] | – |

| inhibition at 1 µM [%] | SMILES | % Inhibition at 10^−6M [%] |
| --- | --- | --- |
| 100 | Cn1cncc1CN(CCCc1ccccc1)c1ccc(C#N)c(-c2cccc3ccccc23)c1 [Example 230, 4-(((1-methyl-1H-imidazol-5-yl)methyl)(3-phenylpropyl)amino)-2-(1-naphthyl)benzonitrile] | – |
| 100 | Cn1cncc1CN(Cc1ccc(C#N)cc1)c1ccc(C#N)c(-c2cccc3ccccc23)c1 [Example 231, 4-((4-cyanobenzyl)((1-methyl-1H-imidazol-5-yl)methyl)amino)-2-(1-naphthyl)benzonitrile] | – |
| 100 | Cn1cncc1CN(Cc1ccccc1)c1ccc(C#N)c(-c2cccc3ccccc23)c1 [Example 232, 4-(benzyl((1-methyl-1H-imidazol-5-yl)methyl)amino)-2-(1-naphthyl)benzonitrile] | – |
| 100 | CCCCCCN(Cc1cncn1C)c1ccc(C#N)c(-c2cccc3ccccc23)c1 [Example 233, 4-(hexyl((1-methyl-1H-imidazol-5-yl)methyl)amino)-2-(1-naphthyl)benzonitrile] | – |
| 100 | Cn1cncc1CNc1ccc(C#N)c(-c2cccc3ccccc23)c1 [Example 234, 4-(((1-methyl-1H-imidazol-5-yl)methyl)amino)-2-(1-naphthyl)benzonitrile] | – |
| 100 | Cn1cncc1CN(C(=O)c1ccccc1)c1ccc(C#N)c(-c2cccc3ccccc23)c1 [Example 235, N-(4-cyano-3-(1-naphthyl)phenyl)-N-((1-methyl-1H-imidazol-5-yl)methyl)benzamide] | – |
| 93 | Cc1ccccc1-c1cc(N(Cc2cncn2C)C(=O)c2ccccc2)ccc1C#N [Example 236, N-(6-cyano-2′-methyl(1,1′-biphenyl)-3-yl)-N-((1-methyl-1H-imidazol-5-yl)methyl)benzamide] | – |
| 100 | Cc1ccccc1-c1cc(N(Cc2cccc(C#N)c2)Cc2cncn2C)ccc1C#N [Example 237, 5-((3-cyanobenzyl)((1-methyl-1H-imidazol-5-yl)methyl)amino)-2′-methyl(1,1′-biphenyl)-2-carbonitrile] | – |
| 95 | Cn1cncc1C(OCc1ccc(Cl)c(Cl)c1)c1ccc(C#N)c(-c2cccc3cccnc23)c1 (stereo not drawn) [Example 240, 4-(((3,4-dichlorobenzyl)oxy)(1-methyl-1H-imidazol-5-yl)methyl)-2-(8-quinolinyl)benzonitrile dihydrochloride] | – |
| – | Cl.Cl.Cn1cncc1C(OCc1ccc(C(F)(F)F)c(F)c1)c1ccc(C#N)c(-c2cccc3cccnc23)c1 (stereo not drawn) [Example 241, 4-(((3-fluoro-4-(trifluoromethyl)benzyl)oxy)(1-methyl-1H-imidazol-5-yI)methyl)-2-(8-quinolinyl)benzonitrile dihydrochloride] | 98 |
| 98 | Cn1cncc1C(OCc1ccc(F)c(C(F)(F)F)c1)c1ccc(C#N)c(-c2cccc3cccnc23)c1 (stereo not drawn) [Example 242, 4-(((4-fluoro-3-(trifluoromethyl)benzyl)oxy)(1-methyl-1H-imidazol-5-yl)methyl)-2-(8-quinolinyl)benzonitrile dihydrochloride] | – |
| 82 | Cn1cncc1C(OCc1ccc(C(=O)O)cc1)c1ccc(C#N)c(-c2cccc3cccnc23)c1 (stereo not drawn) [Example 243, 4-(((4-cyano-3-(8-quinolinyl)phenyl)(1-methyl-1H-imidazol-5-yl)methoxy)methyl)benzoic acid dihydrochloride] | – |
| 90 | Cn1cncc1C(OCc1ccc(C(N)=O)cn1)c1ccc(C#N)c(-c2cccc3cccnc23)c1 (stereo not drawn) [Example 244, 6-(((4-cyano-3-(8-quinolinyl)phenyl)(1-methyl-1H-imidazol-5-yl)methoxy)methyl)nicotinamide trihydrochloride] | – |
| 90 | Cn1cncc1C(OCc1ccc(C(=O)O)cn1)c1ccc(C#N)c(-c2cccc3cccnc23)c1 (stereo not drawn) [Example 245, 6-(((4-cyano-3-(8-quinolinyl)phenyl)(1-methyl-1H-imidazol-5-yl)methoxy)methyl)nicotinic acid trihydrochloride] | – |
| 90 | Cn1cncc1C(OCc1ncc(C(F)(F)F)cc1Cl)c1ccc(C#N)c(-c2cccc3cccnc23)c1 (stereo not drawn) [Example 246, 4-(((3-chloro-5-(trifluoromethyl)-2-pyridinyl)methoxy)(1-methyl-1H-imidazol-5-yl)methyl)-2-(8-quinolinyl)benzonitrile] | – |
| 95 | Cn1cncc1C(OCc1ccc(C#N)cn1)c1ccc(C#N)c(-c2cccc3cccnc23)c1 (stereo not drawn) [Example 247, 6-(((4-cyano-3-(8-quinolinyl)phenyl)(1-methyl-1H-imidazol-5-yl)methoxy)methyl)nicotinonitrile trihydrochloride] | – |
| 98 | Cn1cncc1C(OCc1ccc(Cl)c(Cl)c1)c1ccc(C#N)c(-c2ccccc2C(F)(F)F)c1 (stereo not drawn) [Example 248, 5-(((3,4-dichlorobenzyl)oxy)(1-methyl-1H-imidazol-5-yl)methyl)-2′-(trifluoromethyl)(1,1′-biphenyl)-2-carbonitrile hydrochloride] | – |
| 98 | Cn1cncc1C(OCc1ccc(C(F)(F)F)c(F)c1)c1ccc(C#N)c(-c2ccccc2C(F)(F)F)c1 (stereo not drawn) [Example 249, 5-(((3-fluoro-4-(trifluoromethyl)benzyl)oxy)(1-methyl-1H-imidazol-5-yl)methyl)-2′-(trifluoromethyl)(1,1′-biphenyl)-2-carbonitrile hydrochloride] | – |
